Here are results for 1 compound from patent US20100261682A1, “Method and Means for the Treatment of Cachexia” (Bioneris AB, priority 2007, published 2010).

In experiment [1] the test system is mice bearing the MAC16 tumour. Put plainly: Body weight change in cachectic mice bearing the MAC16 tumour treated with alpha-trinositol (Example 1). It is filed as in vivo, NMRI mice. Here is the method: Materials. Alpha-trinositol (1-D-Myo-inositol 1,2,6-triphosphate) was prepared according to U.S. Pat. No. 4,777,134. In a glass ampoule a stock solution was prepared by dissolving 1 g of alpha-trinositol in saline to a total volume of 10 ml. The stock solution was stored in a refrigerator for use within 24 hrs.
(§1) Animals. Pure strain male NMRI mice (average body weight 25 g) were transplanted with fragments of the MAC16 tumour subcutaneously into the flank by means of a trochar, selected from donor animals with established weight loss (Bibby M C et al., Characterization of transplantable adenocarcinoma in the mouse colon producing cachexia in the recipient animals. J Natl Cancer Inst 78 (1987) 539-546). Transplanted animals were given a rat and mouse breeding diet (Special Diet Services, Witham, UK) and water at lib. Weight loss was evident 10 to 12 days after tumour implantation. Just prior to the development of weight loss 24 animals were randomized into four groups (I-IV) of six animals each.
(§2) Administration of alpha-trinositol. A first experiment was started when the animals had lost about 5% of body weight. Aliquots (2.5 μl, Group I; 5 μl, Group II; 10 μl, Group III) of alpha-trinositol stock solution corresponding to doses of 10 mg/kg, 20 mg/kg, and 40 mg/kg for a 25 g animal were administered subcutaneously three times per day at 8.00, 12.00 and 16.00 hrs. The fourth group (Group IV; control) was given an intravenous injection of 10 μl of water. Body weight (FIG. 1), tumour volume (FIG. 2), and water and food intake were determined daily after the last injection.

For experiment [2], the system named is MAC16 tumour. Put plainly: Tumour volume in MAC16 tumour-bearing mice treated with alpha-trinositol (Example 1). Type of experiment: in vivo, NMRI mice. As to conditions: 10 mg/kg s.c. three times per day.
Description: as §1, §2

Experiment [3] deals with PIF (proteolysis inducing factor) induced protein degradation in murine myotubes. Put plainly: PIF-induced protein degradation in murine myotubes. The note with it: AT 100 μM, 2 h prior to addition of PIF. Type of experiment: cell-based. The method, then: To investigate the mechanism by which AT protects lean body mass in cachexia, further experiments were carried out in vitro using murine myotubes as a surrogate model of skeletal muscle. Incubation with either PIF or angiotensin II (Ang II) induced protein degradation with a characteristic bell-shaped dose-response curve as previously reported (Smith et al., 2004, Br. J. Cancer, and Tisdale et al., 2006, Cell. Sig) with the maximal effect of PIF at 4.2 nM and Ang II at 0.5 μM (FIGS. 5 and 8).

In experiment [4] the test system is Angiotensin II induced chymotrypsin like activity in C2C12 myotubes. Put plainly: Angiotensin II induced chymotrypsin-like activity in C2C12 myotubes. It is filed as cell-based, murine. The note with it: AT 100 μM. From the text:
Protein degradation induced by PIF is mediated through up-regulation of the ubiquitin-proteasome pathway (Tisdale et al., 2004, Br. J. Cancer). […] A hexanoyl ester of AT (lipid soluble AT) has been produced as a slow release form, after hydrolysis by esterase.

Experiment [5] concerns MAC16 tumour-bearing mice. Put plainly: Body weight and gastrocnemius muscle weight in MAC16 tumour-bearing mice (Example 4). As to conditions: 40 mg/kg s.c., 3 times per day, 5 days. It is filed as in vivo, NMRI mice.
The test system of experiment [6] is p42. Put plainly: Western blot of gastrocnemius muscle: p42. Type of experiment: in vivo, NMRI mice. The note with it: 40 mg/kg s.c., 3 times per day. Here is the method:
(§3) Administration of alpha-trinositol. Mice (n=6) bearing the MAC16 tumour were treated with AT (40 mg/kg) s.c., 3 times per day, for 5 days, while a control group received PBS. Protein synthesis and degradation were determined by the incorporation and release of L-[2,6-^3H]phenylalanine, as described in Smith et al., Cancer Res., 2005; 65:277-83. On the fourth day of treatment half of the group administered 0.4 mmol/L L-[2,6-^3H]phenylalanine in PBS (100 μl) by i.p. administration.
(§4) Western blot analysis Gastrocnemius muscle (10 mg) was homogenised in Phosphosafe™ Extraction Reagent (500 μl) and centrifuged at 15000 g for 15 min. Samples of the cytosolic proteins (5 μg) were loaded on either a 10% (mTOR, myosin, eIF4E and eIF4G) 12% (PKR, eIF2α and actin) or 15% (4E-BP1) sodium dodecylsulphate-polyacrylamide gel (SDS-PAGE) and electrophoresed at 180 V for approximately 1 h. The extent of phosphorylation of 4E-BP1, and the association of 4E-BP1 and eIF4G with eIF4E was determined by Western blotting when eIF4E was extracted from the muscle samples by m^7GTP-Sepharose 4B-affinity binding, as previously described Eley ey al., Biochem J., 2007; 407:113-20, by loading 20 μg of protein. […] Blots were scanned by a densitometer to quantify differences.
On the technique in general: A western blot detects proteins with antibodies after separation by electrophoresis.

Experiment [7] deals with PKR. Put plainly: Western blot of gastrocnemius muscle: phospho PKR/total PKR. Type of experiment: in vivo, NMRI mice. The note with it: 40 mg/kg; tumour-bearing animals. Here is the method:
as §3, §4

With `O=P(O)(O)O[C@@H]1[C@H](OP(=O)(O)O)[C@H](O)[C@@H](O)[C@H](O)[C@H]1OP(=O)(O)O` [alpha-trinositol, 1-D-Myo-inositol 1,2,6-triphosphate], the “anti-cachexia effect (body weight)” value in experiment [1] (10 mg/kg s.c. three times per day) is listed as “clear anti-cachexia effect”. Besides, the “relative weight loss versus control group” value in experiment [1] (day 0 to day 5, AT group) is “half of the control group”. In experiment [1] (day 0 to day 5, AT group, s.c. three times per day (FIG. 3: 3×40 mg/kg), control lost ~4.7 g), the body weight lost was ~2.3 g. In addition, in experiment [1] (day 1 (first day of treatment) to day 5, AT group, control lost 3.3 g), the body weight lost amounted to 1.15 g. The “weight loss as fraction of the control group” value in experiment [1] (day 1 to day 5, AT group) is recorded as “⅓”. Moreover, in experiment [2], the tumour inhibition entry was “did not produce any statistically significant effect”. The “effect on PIF-induced protein degradation” value in experiment [3] is “completely attenuated protein degradation down to basal levels”. Further, in experiment [4], the “effect on Ang II-induced chymotrypsin-like enzyme activity” value is “completely attenuated”. Further, in experiment [5], the “gastrocnemius muscle weight compared to the control” value is “significantly higher” and the “weight loss compared to the control group” value is “significantly lower”. Moreover, the “expression of p42 in gastrocnemius muscle” value in experiment [6] was “down-regulates”. Besides, the “expression of phospho PKR (ratio phosphoPKR/total PKR)” value in experiment [7] was “significant decrease”.
